Data on 3 compounds can be found in ChEMBL document CHEMBL1152915, “The inhibitory mechanism of a novel cationic glucosamine derivative against MMP-2 and MMP-9 expressions” (Bioorg Med Chem Lett, 2009).

Activity calls are given as the source filed them. The calls are words filed in the database; no cut-off is given here.

The subject of data set [1] is HT-1080. The data set is described as follows: Antiinvasive activity in human HT1080 cells at 60 ug/ml after 48 hrs. The data set is classed as functional, cell-based.
Data set [2] has as its target Matrix metalloproteinase-9 (Homo sapiens) (UniProt P14780). As to the kind of experiment: Inhibition of MMP9 gelatinolytic activity in phorbol myristate acetate-stimulated human HT1080 cells at 60 ug/ml by gelatin zymography relative to control. Format: cell-based. The following applies: HT-1080.
Data set [3] addresses 72 kDa type IV collagenase (Homo sapiens) (UniProt P08253). The data set is described as follows: Inhibition of MMP2 gelatinolytic activity in phorbol myristate acetate-stimulated human HT1080 cells at 60 ug/ml by gelatin zymography relative to control. Format: cell-based. The following applies: HT-1080.
The test system of data set [4] is HT-1080. The data set is described as follows: Suppression of TIMP2 expression in phorbol myristate acetate-stimulated human HT1080 cells by Western blotting relative to control. Format: functional, cell-based. On the technique in general: In western blotting, separated proteins are transferred to a membrane and probed.
Data set [5] deals with HT-1080. The data set is described as follows: Suppression of TIMP1 expression in phorbol myristate acetate-stimulated human HT1080 cells by Western blotting relative to control. The data set is classed as functional, cell-based.
Data set [6] concerns HT-1080. As to the kind of experiment: Cytotoxicity against human HT1080 cells assessed as cell viability at upto 60 ug/ml. The data set is classed as cell-based.
The target of data set [7] is 72 kDa type IV collagenase (Homo sapiens) (UniProt P08253). As to the kind of experiment: Inhibition of MMP2 gelatinolytic activity in human HT1080 cells at upto 60 ug/ml by gelatin zymography relative to control. The data set is classed as cell-based. The following applies: HT-1080.
72 kDa type IV collagenase (Homo sapiens), sequence (P08253 110-660 limits assumed): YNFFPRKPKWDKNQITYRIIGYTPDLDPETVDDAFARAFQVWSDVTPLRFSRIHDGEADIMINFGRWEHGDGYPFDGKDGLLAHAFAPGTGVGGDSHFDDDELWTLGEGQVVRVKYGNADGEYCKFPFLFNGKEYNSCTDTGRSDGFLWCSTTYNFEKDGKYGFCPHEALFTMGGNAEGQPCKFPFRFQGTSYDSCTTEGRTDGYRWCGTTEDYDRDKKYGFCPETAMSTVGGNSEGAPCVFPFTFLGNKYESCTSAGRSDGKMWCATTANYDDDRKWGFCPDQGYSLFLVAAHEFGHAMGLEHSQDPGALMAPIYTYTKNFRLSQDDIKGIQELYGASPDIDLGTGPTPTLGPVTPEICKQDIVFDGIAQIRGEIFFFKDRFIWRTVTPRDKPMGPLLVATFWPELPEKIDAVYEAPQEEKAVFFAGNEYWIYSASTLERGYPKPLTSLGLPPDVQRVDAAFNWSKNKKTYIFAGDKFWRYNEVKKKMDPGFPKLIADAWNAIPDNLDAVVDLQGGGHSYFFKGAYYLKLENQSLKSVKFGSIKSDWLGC
Data set [8] concerns HT-1080. The data set is described as follows: Inhibition of p38 expression in phorbol myristate acetate-stimulated human HT1080 cells at 60 ug/ml by Western blotting relative to control. Format: functional, cell-based.
For data set [9], the target named is 72 kDa type IV collagenase (Homo sapiens) (UniProt P08253). The data set is described as follows: Reduction of gelatinolytic activity of MMP2 in phorbol myristate acetate-stimulated human HT1080 cells at 40 and 60 ug/ml. Format: cell-based. The following applies: HT-1080.
Data set [10] deals with HT-1080. The data set is described as follows: Suppression of MMP2 expression in phorbol myristate acetate-stimulated human HT1080 cells by Western blotting relative to control. The data set is classed as functional, cell-based.
For data set [11], the system named is HT-1080. As to the kind of experiment: Suppression of AP1 c-FOS subunit expression in phorbol myristate acetate-stimulated human HT1080 cell nucleus by Western blotting relative to control. The data set is classed as functional, cell-based.
For data set [12], the target named is Matrix metalloproteinase-9 (Homo sapiens) (UniProt P14780). The data set is described as follows: Reduction of gelatinolytic activity of MMP9 in phorbol myristate acetate-stimulated human HT1080 cells at 40 and 60 ug/ml. Format: cell-based. The following applies: HT-1080.
Matrix metalloproteinase-9 (Homo sapiens), sequence (P14780 whole entry): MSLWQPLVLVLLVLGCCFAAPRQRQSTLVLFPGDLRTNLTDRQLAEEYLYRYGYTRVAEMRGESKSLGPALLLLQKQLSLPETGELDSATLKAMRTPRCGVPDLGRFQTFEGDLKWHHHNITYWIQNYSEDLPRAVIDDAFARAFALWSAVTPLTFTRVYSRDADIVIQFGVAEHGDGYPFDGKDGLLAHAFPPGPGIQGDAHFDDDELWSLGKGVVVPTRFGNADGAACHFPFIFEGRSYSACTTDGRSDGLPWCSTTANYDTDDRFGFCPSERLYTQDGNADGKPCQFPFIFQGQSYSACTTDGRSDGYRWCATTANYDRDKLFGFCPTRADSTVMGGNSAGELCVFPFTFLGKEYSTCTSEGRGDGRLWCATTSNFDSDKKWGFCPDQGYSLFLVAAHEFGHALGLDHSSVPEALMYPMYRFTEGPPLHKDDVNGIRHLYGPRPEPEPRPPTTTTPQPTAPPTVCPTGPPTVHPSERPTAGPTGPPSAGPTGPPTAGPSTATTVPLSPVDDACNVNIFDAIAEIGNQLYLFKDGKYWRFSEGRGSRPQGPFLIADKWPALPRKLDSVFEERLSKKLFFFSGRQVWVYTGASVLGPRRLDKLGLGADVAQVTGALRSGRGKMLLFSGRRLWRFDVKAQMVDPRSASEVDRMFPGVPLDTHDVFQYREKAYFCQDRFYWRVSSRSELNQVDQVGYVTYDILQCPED
Data set [13] concerns the target 72 kDa type IV collagenase (Homo sapiens) (UniProt P08253). The data set is described as follows: Inhibition of MMP2 gene promoter activity in phorbol myristate acetate-stimulated human HT1080 cells at 60 ug/ml by luciferase reporter gene assay relative to control. Format: cell-based. The following applies: HT-1080.
Data set [14] concerns the target Matrix metalloproteinase-9 (Homo sapiens) (UniProt P14780). As to the kind of experiment: Inhibition of MMP9 gelatinolytic activity in human HT1080 cells at upto 60 ug/ml by gelatin zymography relative to control. Format: cell-based. The following applies: HT-1080.
Data set [15] relates to HT-1080. As to the kind of experiment: Suppression of AP1 c-FOS subunit expression in phorbol myristate acetate-stimulated human HT1080 cell cytoplasm by Western blotting relative to control. The data set is classed as functional, cell-based.
Data set [16] concerns the target 72 kDa type IV collagenase (Homo sapiens) (UniProt P08253). As to the kind of experiment: Inhibition of MMP2 gene promoter activity in phorbol myristate acetate-stimulated human HT1080 cells by luciferase reporter gene assay. Format: cell-based. The following applies: HT-1080.
Data set [17] relates to HT-1080. The data set is described as follows: Suppression of NF-kappaB p65 subunit expression in phorbol myristate acetate-stimulated human HT1080 cell nucleus by Western blotting relative to control. Format: functional, cell-based.
Data set [18] deals with HT-1080. As to the kind of experiment: Inhibition of JNK expression in phorbol myristate acetate-stimulated human HT1080 cells at 60 ug/ml by Western blotting relative to control. Format: functional, cell-based.
Data set [19] relates to HT-1080. As to the kind of experiment: Suppression of NF-kappaB p65 subunit expression in phorbol myristate acetate-stimulated human HT1080 cell cytoplasm by Western blotting relative to control. Format: functional, cell-based.
Data set [20] has as its target Matrix metalloproteinase-9 (Homo sapiens) (UniProt P14780). The data set is described as follows: Inhibition of MMP9 in phorbol myristate acetate-stimulated human HT1080 cells by gelatin zymography relative to control. The note with it: HT-1080. The data set is classed as cell-based.
Data set [21] deals with HT-1080. The data set is described as follows: Inhibition of NF-kappaB gene promoter activity in phorbol myristate acetate-stimulated human HT1080 cells at 60 ug/ml by luciferase reporter gene assay. Format: cell-based. A general note: Reporter assays use an easily measured gene product as a stand-in for the process of interest.
Data set [22] concerns the target 72 kDa type IV collagenase (Homo sapiens) (UniProt P08253). As to the kind of experiment: Inhibition of MMP2 in phorbol myristate acetate-stimulated human HT1080 cells by gelatin zymography relative to control. The data set is classed as cell-based. The note with it: HT-1080.
In data set [23] the test system is HT-1080. The data set is described as follows: Suppression of MMP9 expression in phorbol myristate acetate-stimulated human HT1080 cells by Western blotting relative to control. Format: functional, cell-based.
The test system of data set [24] is HT-1080. The data set is described as follows: Inhibition of cell migration in human HT1080 cells at 60 ug/ml. Format: functional.
Data set [25] deals with HT-1080. As to the kind of experiment: Antiinvasive activity in human HT1080 cells at 20 ug/ml after 48 hrs. The data set is classed as functional.
Data set [26] concerns the target Transcription factor Jun (Homo sapiens) (UniProt P05412). As to the kind of experiment: Inhibition of AP1 gene promoter activity in phorbol myristate acetate-stimulated human HT1080 cells at 60 ug/ml by luciferase reporter gene assay. Format: cell-based. The note with it: HT-1080.
Data set [27] has as its target Matrix metalloproteinase-9 (Homo sapiens) (UniProt P14780). As to the kind of experiment: Inhibition of MMP9 gene promoter activity in phorbol myristate acetate-stimulated human HT1080 cells at 60 ug/ml by luciferase reporter gene assay relative to control. Format: cell-based. The following applies: HT-1080.
Data set [28] deals with HT-1080. As to the kind of experiment: Inhibition of ERK expression in phorbol myristate acetate-stimulated human HT1080 cells at 60 ug/ml by Western blotting relative to control. Also noted: scale not given: the % may be the effect or the level left. The data set is classed as functional.
Data set [29] concerns the target Matrix metalloproteinase-9 (Homo sapiens) (UniProt P14780). The data set is described as follows: Inhibition of MMP9 gene promoter activity in phorbol myristate acetate-stimulated human HT1080 cells by luciferase reporter gene assay. The data set is classed as cell-based. The following applies: HT-1080.

The inhibition is the percentage by which the read-out fell short of the control.

Transcription factor Jun (Homo sapiens), sequence (P05412 whole entry): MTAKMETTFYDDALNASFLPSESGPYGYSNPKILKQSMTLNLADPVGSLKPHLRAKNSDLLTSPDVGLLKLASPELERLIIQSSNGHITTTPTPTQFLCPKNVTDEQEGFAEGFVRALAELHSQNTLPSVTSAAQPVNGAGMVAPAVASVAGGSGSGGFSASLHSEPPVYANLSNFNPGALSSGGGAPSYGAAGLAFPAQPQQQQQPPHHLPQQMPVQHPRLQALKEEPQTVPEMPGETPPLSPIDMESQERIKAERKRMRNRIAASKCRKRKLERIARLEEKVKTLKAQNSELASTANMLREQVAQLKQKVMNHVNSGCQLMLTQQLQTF

Take `N[C@H]1C(O)O[C@H](CO)[C@@H](O)[C@@H]1O` (stereo partly drawn): in the data set on HT-1080 [1], the outcome was inactive. Also, the inhibition entry in data set [2] and in data set [3] was “inactive” in each case.

Turning to `C[N+](C)(C)CC(O)CN[C@@H]1[C@@H](O)[C@H](O)[C@@H](CO)O[C@H]1O` (stereo partly drawn), the result in the data set on HT-1080 [4] and with HT-1080 [5] was inactive. Further, the Activity entry in the data set with HT-1080 [6] was “Non-toxic”; in the data set on HT-1080 [10], “Dose-dependent effect”; in the data set on HT-1080 [23], “Dose-dependent effect”; in the data set on HT-1080 [25], 50%; with HT-1080 [28], 60%. The inhibition entry in data set [7] and in data set [14] was “inactive” in each case. Also, the inhibition entry (in the data set on HT-1080 [8]; with HT-1080 [18]; in data set [20]; in data set [22]) was “Active” in each case. The outcome (in [9]; in the data set with HT-1080 [11]; in data set [12]; in the data set on HT-1080 [15]; in the data set with HT-1080 [17]; with HT-1080 [19]) was Active. The inhibition in [2] is 50%; in [3] it was 62%; in data set [16], “Dose-dependent effect”; in the data set on HT-1080 [21] it was 65%; in [26], 60%; in data set [29], “Dose-dependent effect”. Moreover, the fold change (FC) in data set [13] and in data set [27] was 3 in each case. In the data set on HT-1080 [24], this compound yielded an inhibition at 60 µg/mL of 70%.

With `C[C@H]1c2cccc(O)c2C(=O)C2=C(O)[C@]3(O)C(=O)C(C(N)=O)=C(O)[C@@H](N(C)C)[C@@H]3[C@@H](O)[C@@H]21`, the inhibition result in data set [7] and in data set [14] was “inactive” throughout.
